Results reported in US20210072244A1, “METHODS AND COMPOSITIONS FOR TREATING MELANOMA RESISTANT” (INSERM (INSTITUT NATIONAL DE LA SANTÉ ET DE LA RECHERCHE …, priority 2018, published 2021).
Read-outs that look alike come from different tables or passages of the source.

Key:
NAMPT [1] = assay: NAMPT expression in melanoma cells (Western blot, QPCR); type: cell-based, human
Protocol: The proteins were visualized using the ECL system (Amersham).
The mRNA was isolated using TRIzol (Invitrogen) according to a standard procedure. QRT-PCR was performed using SYBR® Green I (Eurogentec, Seraing, Belgium) and Multiscribe Reverse Transcriptase (Applied Biosystems) and subsequently monitored using the ABI Prism 7900 Sequence Detection System (Applied Biosystems, Foster City, Calif.). The detection of the SB34 gene was used to normalize the results. Primer sequences for each cDNA were designed using either Primer Express Software (Applied Biosystems) or qPrimer depot (http://primerdepot.nci.nih.gov), and these sequences are available upon request.

ERK = ERK phosphorylation (Western blot); type: cell-based, human; settings: for ERK phosphorylation levels: A375 melanoma cells, data not shown; for ERK phosphorylation: A375 and WM9 cells
Protocol: (§1) Western blotting was performed as previously described (Hilmi et al. 2008; Bertolotto et al. 2011). Briefly, cell lysates (30 μg) were separated using SDS-PAGE, transferred onto a PVDF membrane and subsequently exposed to the appropriate antibodies, anti-ERK2 (Santa Cruz Biotechnology, sc-1647 clone D-2), anti-phospho-ERK1/2 (Thr202/Tyr204) (Cell Signaling Technology Inc., #2370), anti-BRAF (Santa Cruz Biotechnology, sc-5284 clone F-7), anti-NAMPT (Sigma, #B5812), antiphospho-STAT5 (Tyr694) (Ozyme #9351), anti-STAT5 (Ozyme #9363), and anti-HSP90 (Santa Cruz biotechnology, #sc-13119). The proteins were visualized using the ECL system (Amersham). The western blots shown are representative of at least 3 independent experiments.

[2] = system: intracellular NAD+ in melanoma cells; assay: Intracellular NAD+ measurement (NAD/NADH Quantitation Kit); type: cell-based, human; settings: for intracellular NAD+ levels: 5 μM, 24 h (FIG. 1B)
Protocol: Human melanoma cell lines and short-term cultures derived from different patients with metastatic malignant melanoma cells were grown in DMEM supplemented with 7% FBS at 37° C. in a humidified atmosphere containing 5% CO2. PLX4032-sensitive and PLX4032-resistant melanoma cells were previously described (Bonet et al. 2012; Ohanna et al. 2014). Lipofectamine™ RNAiMAX and opti-MEM medium were purchased from Invitrogen (San Diego, Calif., USA). FK866 was obtained from Sigma, U0126 and GSK1120212 were purchased from Euromedex, and PD98059 and SCH77294 were obtained from Selleck Chemicals. The STAT5 inhibitor (CAS 285986-31-4) was purchased from Sigma. Intracellular NAD+ was measured using the NAD/NADH Quantitation Kit from Sigma according to the manufacturer's instructions.

[3] = system: BRAFV600E human melanoma cells; assay: Cell proliferation / viability (cell counting), BRAFV600E cells; type: cell-based
Protocol: (§2) The cells were seeded onto 12-well dishes (10×10^3 cells), and at 48 h post transfection or treatment, the cells were trypsinized from days 1 to 4, counted in triplicate using a hemocytometer. The experiments were performed at least three times.

[4] = system: WM9 melanoma cell xenograft; assay: WM9 melanoma xenograft growth in nude mice; type: in vivo; settings: 15 mg/kg every two days, athymic nude mice, versus vehicle, FIG. 4C
Protocol: (§3) Animal experiments were performed in accordance with French law and approved by a local institutional ethical committee. The animals were maintained in a temperature controlled facility (22° C.) on a 12-h light/dark cycle and provided free access to food (standard laboratory chow diet from UAR, Epinay-S/Orge, France). Human WM9 melanoma cells, responsive or resistant to PLX4032 (2×10^6 cells), were subcutaneously inoculated into 8-week-old female, immune-deficient, athymic, nude FOXN1nu mice (Harlan Laboratory). When the tumors became palpable (0.1-0.2 cm3), the mice received an intraperitoneal injection of PLX4032 (25 mg/kg), FK866 (15 mg/kg) or both drugs dissolved in a mixture of Labrafil M1944 Cs, dimethylacetamide, and Tween 80 (90:9:1, v/v/v) three times per week. Control mice were injected with Labrafil alone. The growth tumor curves were determined after measuring the tumor volume using the equation V=(L×W2)/2. At the end of the experiment, the mice were euthanized by cervical dislocation, and the tumors were harvested for immunofluorescence.

[5] = Body weight of treated mice; type: in vivo; settings: FK866 15 mg/kg, not shown
Protocol: as §3

[6] = system: BRAFi-resistant A375 (A375R) and WM9 (WM9R) melanoma cells; assay: Proliferation and PLX4032 sensitivity of BRAFi-resistant melanoma cells; type: cell-based, human
Protocol: as §2

[7] = system: BRAFi-resistant WM9 melanoma cell xenografts; assay: PLX4032-resistant WM9 (WM9R) xenograft growth in nude mice; type: in vivo; settings: FIG. 5F
Protocol: as §3

[8] = system: A375R melanoma cell xenografts; assay: PLX4032-resistant A375 (A375R) xenograft growth in mice; type: in vivo
STAT5 = STAT5 phosphorylation (Western blot); type: cell-based, human; settings: A375 and WM9 cells
Protocol: as §1

human NAMPT promoter = assay: NAMPT promoter luciferase reporter assay; type: cell-based
[9] = system: UACC62 and WM9 human melanoma cell lines (BRAFV600E); assay: Global metabolic profiling by UPLC-MS/MS; type: cell-based; settings: FIG. 1A
Protocol: Briefly, samples were prepared using the automated MicroLab STAR® system (Hamilton Company). Recovery standards were added prior to the first step in the extraction process for QC purposes. Cell lysates were precipitated using methanol under vigorous shaking for 2 min, followed by centrifugation. The resulting extract was divided into five fractions: two samples for analysis using two separate reversephase (RP)/UPLC-MS/MS methods with positive ion mode electrospray ionization (ESI), one sample for analysis through RP/UPLC-MS/MS with negative ion mode ESI, one sample for analysis through HILIC/UPLC-MS/MS with negative ion mode ESI, and one sample was reserved for backup. The samples were briefly placed on a TurboVap® (Zymark) to remove the organic solvent. The sample extracts were stored overnight under nitrogen prior to preparation for analysis. Chromatography analyses were performed using Waters ACQUITY ultra-performance liquid chromatography (UPLC) and a Thermo Scientific Q-Exactive high resolution/accurate mass spectrometer interfaced with a heated electrospray ionization (HESI-II) source and Orbitrap mass analyzer operated at 35,000 mass resolution. The sample extract was dried and subsequently reconstituted in solvents compatible to each method (Miller et al. 2015). […]

[10] = system: BRAFWT human melanoma cells; assay: Cell proliferation (cell counting), BRAFWT cells; type: cell-based; settings: data not shown
Protocol: as §2

NAMPT [11] = settings: public microarray data GSE51115, melanoma cell lines; cited from earlier work
[12] = A375 melanoma cells, data not shown

CC(=O)Nc1cccc(-n2c(=O)n(C3CC3)c(=O)c3c(Nc4ccc(I)cc4F)n(C)c(=O)c(C)c32)c1 [GSK1120212]
NAMPT expression (NAMPT [1]; [12]): inhibition of NAMPT expression | ERK phosphorylation levels (ERK): inhibition of ERK phosphorylation levels

COc1cccc(-c2cc(=O)c3ccccc3o2)c1N [PD98059]
NAMPT expression (NAMPT [1]; [12]): inhibition of NAMPT expression | ERK phosphorylation levels (ERK): inhibition of ERK phosphorylation levels

N#CC(=C(/N)Sc1ccccc1N)/C(C#N)=C(\N)Sc1ccccc1N [U0126]
NAMPT expression (NAMPT [1]; [12]): inhibition of NAMPT expression | ERK phosphorylation levels (ERK): inhibition of ERK phosphorylation levels

O=C(/C=C/c1cccnc1)NCCCCC1CCN(C(=O)c2ccccc2)CC1 [FK866]
intracellular levels of NAD+ ([2]; A375 and WM9 melanoma cell lines, FIG. 4A): dramatically decreased | cell proliferation ([3]; A375 and WM9 melanoma cells, counted each day, FIG. 4B): impaired cell proliferation | NAMPT expression (NAMPT [1]; A375 and WM9 cells, NAMPT siRNA or FK866): did not affect | WM9 melanoma cell xenograft growth [4]: impaired | weight loss in the treated mice [5]: no weight loss | PLX4032 sensitivity in BRAFi-resistant cells ([6]; A375R and WM9R, PLX4032 5 μM): restored PLX4032 sensitivity | melanoma cell death ([6]; BRAFi-resistant melanoma cells, both in vitro and in vivo): caused melanoma cell death | tumor growth of BRAFi-resistant WM9 xenografts [7]: inhibited tumor growth | melanoma progression (A375R xenograft) ([8]; FK866 1.5 mg/kg and 15 mg/kg, FIG. 5E): dose-dependently reduced | NAD+ in treated tumors ([8]; FK866-treated tumors, data not shown): reduction

O=C(N/N=C/c1coc2ccccc2c1=O)c1cccnc1 [STAT5 inhibitor]
NAD+ levels ([2]; A375 and WM9 cells exposed to STAT5 inhibitor, FIG. 3F): decreased | NAMPT expression (NAMPT [1]; BRAF and STAT5 inhibitors, data not shown): decreased | ERK phosphorylation (ERK): did not affect | STAT5 phosphorylation (STAT5): efficiently reduced | BRAFV600E-stimulated NAMPT promoter activity (human NAMPT promoter; 501MEL cells transfected with BRAFV600E vector, 100 μM, 48 h (FIG. 3E)): decreased | basal NAMPT promoter activity (human NAMPT promoter; 501MEL cells, control vector, 100 μM, 48 h (FIG. 3E)): decreased

O=C(Nc1ccc2[nH]nc(-c3ccncc3)c2c1)[C@@H]1CCN(CC(=O)N2CCN(c3ccc(-c4ncccn4)cc3)CC2)C1 [SCH77294]
NAMPT expression (NAMPT [1]; [12]): inhibition of NAMPT expression | ERK phosphorylation levels (ERK): inhibition of ERK phosphorylation levels

CCCS(=O)(=O)Nc1ccc(F)c(C(=O)c2c[nH]c3ncc(-c4ccc(Cl)cc4)cc23)c1F [PLX4032]
nicotinamide adenine dinucleotide (NAD+) levels [9]: reduced | intracellular NAD+ levels ([2]; BRAFWT human melanoma cells): not in BRAFWT human melanoma cells | intracellular NAD+ levels ([2]; all BRAFV600E-mutated melanoma cell lines and short-term cultures): reduced intracellular NAD+ levels | viability ([3]; A375 and WM9 melanoma cells, 5 μM, 72 h (FIG. 5B)): inhibited the viability | cell proliferation ([3]; BRAFV600E human melanoma cells, data not shown): inhibited cell proliferation | cell proliferation [10]: not in BRAFWT human melanoma cells | NAMPT expression, protein level (NAMPT [1]; 4 different BRAFV600E melanoma cells, data not shown): reduced NAMPT expression | NAMPT expression, mRNA level (NAMPT [1]; BRAFV600E melanoma cells, QPCR, FIG. 2A): reduced NAMPT expression | NAMPT expression (NAMPT [1]; BRAFWT human melanoma cells, data not shown): No inhibition | ERK phosphorylation (ERK): inhibited | STAT5 phosphorylation (STAT5): inhibited | NAMPT promoter activity (human NAMPT promoter; A375 and WM9 cells, FIGS. 3A-B): dose-dependent decrease | NAMPT promoter activity, significance over doses (human NAMPT promoter; A375 cells, 48 h, p<0.0034): all the PLX4032 doses lead to significant decrease | PLX4032 dose giving significant decrease in NAMPT promoter activity (human NAMPT promoter; WM9 cells, 48 h, p<0.014, in µM): > 0.005 | tumor growth of BRAFi-resistant WM9 xenografts [7]: not affected

O=C(NOC[C@H](O)CO)c1ccc(F)c(F)c1Nc1ccc(I)cc1F [PD0325901]
NAMPT expression (NAMPT [11]): inhibition of NAMPT expression
